Assay results reported in PubChem BioAssay AID180 (DTP/NCI, 2004).
Where “and” joins values, the source holds several entries; their conditions need not be identical. Equal values may be shown once.

Tested on: BDF1 mice, Adenocarcinoma 755 s.c., tumor weight T/C
Test: NCI In Vivo Anticancer Drug Screen. Data for tumor model Adenocarcinoma 755 (subcutaneous) in B6D2F1 (BDF1) mice
Settings: endpoint: mean tumor weight, higher = larger tumour
How it was run: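 Transplantable tumor implanted; mice dosed with compound or vehicle; survival or tumor size recorded; ratio of treated to vehicle control reported.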

[1] = dose: 25.0 mg/kg/injection, schedule: Q01DX011 (ip), vehicle: methylcellulose (MC)

O=C1C=C(N2CC2)C(=O)C(N2CC2)=C1N1CC1
T/C (dose: 0.02 mg/kg/injection, schedule: Q01DX011 (ip), vehicle: saline): 79 % of control | T/C (dose: 0.05 mg/kg/injection, schedule: Q01DX011 (ip), vehicle: saline): 61 % of control | T/C (dose: 0.1 mg/kg/injection, schedule: Q01DX011 (ip), vehicle: saline): 19 % of control | T/C (dose: 3.0 micrograms/kg/injection, schedule: Q01DX011 (ip), vehicle: carboxymethylcellulose (CMC)): 42 % of control | T/C (dose: 5.0 micrograms/kg/injection, schedule: Q01DX011 (ip), vehicle: carboxymethylcellulose (CMC)): 25 % of control | T/C (dose: 5.0 micrograms/kg/injection, schedule: Q01DX011 (ip), vehicle: saline): 65 % of control | T/C (dose: 10.0 micrograms/kg/injection, schedule: Q01DX011 (ip), vehicle: carboxymethylcellulose (CMC)): 39 % of control | T/C (dose: 10.0 micrograms/kg/injection, schedule: Q01DX011 (ip), vehicle: saline): 54 % of control | T/C (dose: 20.0 micrograms/kg/injection, schedule: Q01DX011 (ip), vehicle: carboxymethylcellulose (CMC)): 8 % of control | T/C (dose: 20.0 micrograms/kg/injection, schedule: Q01DX011 (ip), vehicle: saline): 59 % of control | T/C (dose: 25.0 micrograms/kg/injection, schedule: Q01DX011 (ip), vehicle: carboxymethylcellulose (CMC)): 70 % of control | T/C (dose: 31.0 micrograms/kg/injection, schedule: Q01DX011 (ip), vehicle: carboxymethylcellulose (CMC)): 100 % of control | T/C (dose: 40.0 micrograms/kg/injection, schedule: Q01DX011 (ip), vehicle: saline): 33 % of control | T/C (dose: 62.0 micrograms/kg/injection, schedule: Q01DX011 (ip), vehicle: carboxymethylcellulose (CMC)): 69 % of control | T/C (dose: 125.0 micrograms/kg/injection, schedule: Q01DX011 (ip), vehicle: carboxymethylcellulose (CMC)): 63 % of control

c1cc[nH]c1
T/C (dose: 40.0 mg/kg/injection, schedule: Q01DX011 (ip), vehicle: carboxymethylcellulose (CMC)): 101 % of control | T/C (dose: 80.0 mg/kg/injection, schedule: Q01DX011 (ip), vehicle: carboxymethylcellulose (CMC)): 68 % of control | T/C (dose: 160.0 mg/kg/injection, schedule: Q01DX011 (ip), vehicle: carboxymethylcellulose (CMC)): 113 % of control

Cn1c(N)nc2n[nH]nc2c1=O
T/C (dose: 30.0 mg/kg/injection, schedule: Q01DX011 (ip), vehicle: carboxymethylcellulose (CMC)): 105 % of control | T/C (dose: 60.0 mg/kg/injection, schedule: Q01DX011 (ip), vehicle: carboxymethylcellulose (CMC)): 119 % of control | T/C (dose: 100.0 mg/kg/injection, schedule: Q01DX011 (ip), vehicle: carboxymethylcellulose (CMC)): 98 % of control | T/C (dose: 120.0 mg/kg/injection, schedule: Q01DX011 (ip), vehicle: carboxymethylcellulose (CMC)): 46 % of control | T/C (dose: 240.0 mg/kg/injection, schedule: Q01DX011 (ip), vehicle: carboxymethylcellulose (CMC)): 97 % of control

OC1CC([CH2][Hg][I])OC([CH2][Hg][I])C1 (centres undefined)
T/C (dose: 25.0 mg/kg/injection, schedule: Q01DX011 (ip), vehicle: carboxymethylcellulose (CMC)): 60 % of control | T/C (dose: 50.0 mg/kg/injection, schedule: Q01DX011 (ip), vehicle: carboxymethylcellulose (CMC)): 30 % of control

CC1CN1P(=O)(N1CCCCC1)N1CC1C (centres undefined)
T/C (dose: 3.0 mg/kg/injection, schedule: Q01DX011 (ip), vehicle: saline): 107 % of control and 86 % of control | T/C (dose: 6.0 mg/kg/injection, schedule: Q01DX011 (ip), vehicle: saline): 57 % of control and 71 % of control | T/C (dose: 48.0 mg/kg/injection, schedule: Q01DX011 (ip), vehicle: saline): 11 % of control

O=C(O)c1cc2ccccc2c2cccc([N+](=O)[O-])c12
T/C (dose: 1.75 mg/kg/injection, schedule: Q01DX011 (ip), vehicle: carboxymethylcellulose (CMC)): 63 % of control | T/C (dose: 3.5 mg/kg/injection, schedule: Q01DX011 (ip), vehicle: carboxymethylcellulose (CMC)): 89 % of control | T/C (dose: 7.0 mg/kg/injection, schedule: Q01DX011 (ip), vehicle: carboxymethylcellulose (CMC)): 59 % of control

CC(=O)N(C)C
T/C (dose: 125.0 mg/kg/injection, schedule: Q#A X022 (ip), vehicle: saline): 84 % of control | T/C (dose: 250.0 mg/kg/injection, schedule: Q01DX011 (ip), vehicle: saline): 93 % of control and 105 % of control | T/C (dose: 250.0 mg/kg/injection, schedule: Q01DX011 (sc), vehicle: saline): 100 % of control | T/C (dose: 250.0 mg/kg/injection, schedule: Q03DX004 (ip), vehicle: saline): 64 % of control | T/C (dose: 500.0 mg/kg/injection, schedule: Q01DX006 (iv), vehicle: saline): 99 % of control | T/C (dose: 500.0 mg/kg/injection, schedule: Q01DX011 (im), vehicle: saline): 155 % of control | T/C (dose: 500.0 mg/kg/injection, schedule: Q01DX011 (ip), vehicle: saline): 98 % of control and 77 % of control | T/C (dose: 500.0 mg/kg/injection, schedule: Q03DX004 (ip), vehicle: saline): 79 % of control | T/C (dose: 500.0 mg/kg/injection, schedule: Q#A X022 (ip), vehicle: saline): 57 % of control | T/C (dose: 750.0 mg/kg/injection, schedule: Q01DX011 (ip), vehicle: other): 28 % of control | T/C (dose: 750.0 mg/kg/injection, schedule: Q03DX004 (ip), vehicle: saline): 84 % of control | T/C (dose: 1000.0 mg/kg/injection, schedule: Q01DX001 (ip), vehicle: saline): 72 % of control and 84 % of control | T/C (dose: 1000.0 mg/kg/injection, schedule: Q01DX006 (iv), vehicle: saline): 80 % of control | T/C (dose: 1000.0 mg/kg/injection, schedule: Q01DX011 (im), vehicle: saline): 78 % of control | T/C (dose: 1000.0 mg/kg/injection, schedule: Q01DX011 (ip), vehicle: other): 16 % of control | T/C (dose: 1000.0 mg/kg/injection, schedule: Q01DX011 (sc), vehicle: saline): 66 % of control and 71 % of control | T/C (dose: 1000.0 mg/kg/injection, schedule: Q03DX004 (ip), vehicle: saline): 91 % of control | T/C (dose: 1000.0 mg/kg/injection, schedule: Q#A X022 (ip), vehicle: saline): 29 % of control | T/C (dose: 1250.0 mg/kg/injection, schedule: Q01DX011 (ip), vehicle: other): 5 % of control | T/C (dose: 1500.0 mg/kg/injection, schedule: Q03DX004 (ip), vehicle: saline): 81 % of control | T/C (dose: 2000.0 mg/kg/injection, schedule: Q01DX006 (iv), vehicle: saline): 67 % of control | T/C (dose: 2000.0 mg/kg/injection, schedule: Q01DX011 (im), vehicle: saline): 22 % of control | T/C (dose: 2000.0 mg/kg/injection, schedule: Q01DX011 (ip), vehicle: saline): 16 % of control and 17 % of control | T/C (dose: 2000.0 mg/kg/injection, schedule: Q01DX011 (oral), vehicle: saline): 48 % of control and 57 % of control | T/C (dose: 2000.0 mg/kg/injection, schedule: Q01DX011 (sc), vehicle: saline): 64 % of control | T/C (dose: 2000.0 mg/kg/injection, schedule: Q03DX004 (ip), vehicle: saline): 69 % of control | T/C (dose: 3000.0 mg/kg/injection, schedule: Q03DX004 (ip), vehicle: saline): 36 % of control | T/C (dose: 4000.0 mg/kg/injection, schedule: Q01DX011 (oral), vehicle: saline): 11 % of control

c1ccc2c(c1)ccc1cc3c(ccc4ccccc43)cc12
T/C (dose: 12.5 mg/kg/injection, schedule: Q01DX011 (ip), vehicle: methylcellulose (MC)): 24 % of control | T/C [1]: 44 % of control | T/C (dose: 25.0 mg/kg/injection, schedule: Q01DX011 (ip), vehicle: other): 60 % of control | T/C (dose: 50.0 mg/kg/injection, schedule: Q01DX011 (ip), vehicle: other): 42 % of control | T/C (dose: 100.0 mg/kg/injection, schedule: Q01DX011 (ip), vehicle: other): 36 % of control | T/C (dose: 400.0 mg/kg/injection, schedule: Q01DX011 (ip), vehicle: methylcellulose (MC)): 24 % of control and 25 % of control | T/C (dose: 600.0 mg/kg/injection, schedule: Q01DX011 (ip), vehicle: methylcellulose (MC)): 31 % of control | T/C (dose: 600.0 mg/kg/injection, schedule: Q01DX011 (ip), vehicle: other): 12 % of control

Cn1c(=O)c2[nH]c(NN)nc2n(C)c1=O
T/C [1]: 66 % of control

Cc1c2ccccc2c(C)c2c1ccc1ccccc12
T/C (dose: 9.0 mg/kg/injection, schedule: Q01DX011 (ip), vehicle: carboxymethylcellulose (CMC)): 63 % of control | T/C (dose: 19.0 mg/kg/injection, schedule: Q01DX011 (ip), vehicle: carboxymethylcellulose (CMC)): 54 % of control | T/C (dose: 38.0 mg/kg/injection, schedule: Q01DX011 (ip), vehicle: carboxymethylcellulose (CMC)): 51 % of control

C[C@H]1C[C@@H]2[C@H]([C@@H](O)C[C@@]3(C)[C@H]2CC[C@]3(O)C(=O)CO)[C@@]2(C)C=CC(=O)C=C12
T/C (dose: 14.3 mg/kg/injection, schedule: Q01DX011 (sc), vehicle: steriod suspending solution): 21 % of control | T/C (dose: 14.3 mg/kg/injection, schedule: Q01DX011 (sc), vehicle: water): 48 % of control and 56 % of control | T/C (dose: 28.5 mg/kg/injection, schedule: Q01DX011 (sc), vehicle: steriod suspending solution): 8 % of control | T/C (dose: 28.5 mg/kg/injection, schedule: Q01DX011 (sc), vehicle: water): 25 % of control and 47 % of control | T/C (dose: 57.0 mg/kg/injection, schedule: Q01DX011 (sc), vehicle: steriod suspending solution): 1 % of control | T/C (dose: 57.0 mg/kg/injection, schedule: Q01DX011 (sc), vehicle: water): 5 % of control and 29 % of control | T/C (dose: 114.0 mg/kg/injection, schedule: Q01DX011 (sc), vehicle: steriod suspending solution): 1 % of control | T/C (dose: 114.0 mg/kg/injection, schedule: Q01DX011 (sc), vehicle: water): 3 % of control
